These results are taken from patent US7235375B2, “Organic anion transport proteins” (Bristol-Myers Squibb Company, priority 1999, dated 2007).

Molecules are shown by their SMILES. Read-outs that look alike come from different tables or passages of the source.

The target in the data set is T1, OATP2 (Homo sapiens, UniProt Q9Y6L6, N130D).
T1 sequence (Q9Y6L6 1-691 N130D): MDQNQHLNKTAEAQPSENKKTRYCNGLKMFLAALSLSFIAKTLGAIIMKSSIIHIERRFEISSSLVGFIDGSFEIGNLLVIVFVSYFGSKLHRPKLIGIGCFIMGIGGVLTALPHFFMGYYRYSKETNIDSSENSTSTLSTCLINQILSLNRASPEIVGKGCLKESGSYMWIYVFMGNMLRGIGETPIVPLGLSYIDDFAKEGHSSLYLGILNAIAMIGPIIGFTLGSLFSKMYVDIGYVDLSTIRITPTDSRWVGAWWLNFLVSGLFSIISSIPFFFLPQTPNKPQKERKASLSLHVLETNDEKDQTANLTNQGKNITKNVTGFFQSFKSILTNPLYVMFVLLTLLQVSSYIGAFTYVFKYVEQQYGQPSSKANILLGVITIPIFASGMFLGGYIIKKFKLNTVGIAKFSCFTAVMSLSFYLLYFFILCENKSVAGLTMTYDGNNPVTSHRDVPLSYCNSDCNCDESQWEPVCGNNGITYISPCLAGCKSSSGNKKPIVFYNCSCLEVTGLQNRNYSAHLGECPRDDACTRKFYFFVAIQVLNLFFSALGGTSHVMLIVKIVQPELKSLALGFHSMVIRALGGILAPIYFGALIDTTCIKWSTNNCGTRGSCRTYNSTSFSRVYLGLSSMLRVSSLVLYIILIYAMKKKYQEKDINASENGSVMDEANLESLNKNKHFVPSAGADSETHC
The settings on record: 293EBNA (HEK293 derivative) cells transfected with pCEP-OATP2 or empty vector (MOCK), uptake for 5 minutes, absence and presence of excess unlabeled substrate, FIG. 2. On the procedure: An assay for the measurement of OATP activity is performed as follows: HEK293 cells are plated in Dulbeccos Modified Eagles Medium (DMEM) plus 10% fetal bovine serum plus penicillin and streptomycin, in poly-d-lysine coated dishes and co-transfected with OATP transporter expression plasmids using Lipofectamine Plus (Life Technologies, Inc.). The cells and media are assayed for substrate transport 24 hours later. Alternatively, cell lines engineered to stably express OATPs could be plated and assayed directly without transfection. To measure transport, media is removed and monolayers are assayed in triplicate by washing once in serum-free DMEM and adding the same medium containing [^3H]-substrate alone or in the presence of various concentrations of unlabeled test compounds. […] The transport activity is expressed as moles of substrate transported into cells/mg of cell protein/minute. […]
293EBNA cells (Invitrogen, Inc.), an HEK293 cell derivative, were transiently transfected with the OATP2 expression vector pCEP-OATP2, or the pCEP4 vector alone (MOCK) and the transport of [^3H]-labeled substrates was determined 24 hours later. […] The uptake of radiolabeled substrate for 5 minutes into cells transfected with pCEP-OATP2 or empty vector (MOCK) was determined in the absence (solid bars) and presence (open bars) of excess unlabeled substrate.

Take `NC(Cc1cc(I)c(Oc2cc(I)c(O)c(I)c2)c(I)c1)C(=O)O` (centres unmarked) [thyroid hormone (T4)]: the “transport (specific uptake of radiolabeled substrate) by OATP2” value is given as “specific uptake”. Besides, the “transport (specific uptake of radiolabeled substrate) by OATP2” value (listed as thyroid hormone (T)) was “transports”.
